Where a SMILES comes first, the peptide text is derived from it.
What was measured:
Caki-1 = type: cell-based, human; conditions: Caki-1; for Anti-cancer activity (% relative to wild-type peptide) / Decrease in cell survival rate (% relative to wild-type peptide): wild-type peptide = 100%
U937 = experiment: cells; type: cell-based, human; conditions: for Anti-cancer activity (% relative to wild-type peptide) / Decrease in cell survival rate (% relative to wild-type peptide) / killing effect compared with the wild-type peptide: U937; for Anti-cancer activity (% relative to wild-type peptide) / Decrease in cell survival rate (% relative to wild-type peptide): wild-type peptide = 100%
Description: A total of 3×10^3 cells per well were inoculated onto a 96 well plate, and incubated in a medium containing 10% FBS with 100 μl of a peptide diluted stepwise at 37° C. for 48 to 72 hours. The survival rate of the cells was measured by using WST-8 solution (Cell Count Reagent SF; Nacalai Tesque, Inc.).

cancer cells = experiment: Cell viability assay, summary statements on cancer cells; type: cell-based; conditions: single mutation in TPR or Antp region of Antp-TPR

Compound	Anti-cancer activity (% relative to wild-type peptide) (Caki-1) [%]	Decrease in cell survival rate (% relative to wild-type peptide) (Caki-1) [%]	Cell Survival Rate (%) (U937)	Anti-cancer activity (% relative to wild-type peptide) (U937) [%]	Decrease in cell survival rate (% relative to wild-type peptide) (U937) [%]	effect compared with the wild-type protein (summary of mutations) (cancer cells)	killing effect compared with the wild-type peptide (Caki-1)	killing effect compared with the wild-type peptide (U937)
CC[C@H](C)[C@H](NC(=O)[C@H](CCCNC(=N)N)NC(=O)[C@H](C)NC(=O)[C@H](Cc1ccc(O)cc1)NC(=O)[C@H](C)NC(=O)[C@H](CCCCN)NC(=O)[C@H](CCCCN)NC(=O)[C@H](CCCCN)NC(=O)[C@H](Cc1c[nH]c2ccccc12)NC(=O)[C@H](CCCCN)NC(=O)[C@H](CCSC)NC(=O)[C@H](CCCNC(=N)N)NC(=O)[C@H](CCCNC(=N)N)NC(=O)[C@H](CC(N)=O)NC(=O)[C@H](CCC(N)=O)NC(=O)[C@H](Cc1ccccc1)NC(=O)[C@H](Cc1c[nH]c2ccccc12)NC(=O)[C@@H](NC(=O)[C@H](CCCCN)NC(=O)[C@@H](NC(=O)[C@H](CCC(N)=O)NC(=O)[C@@H](N)CCCNC(=N)N)[C@@H](C)CC)[C@@H](C)CC)C(=O)NCC(=O)N[C@@H](CC(N)=O)C(=O)N[C@@H](CO)C(=O)N[C@@H](CO)C(=O)N[C@@H](Cc1ccccc1)C(=O)N[C@@H](CCCCN)C(=O)O [Antp-Y10S] (H-RQIKIWFQNRRMKWKKKAYARIGNSSFK-OH; N-terminus and C-terminus assumed)	74.56	31.97	28.05	93.73	82.83	effect similar to that of the wild-type protein		
CC[C@H](C)[C@H](NC(=O)[C@H](CCCNC(=N)N)NC(=O)[C@H](C)NC(=O)[C@H](Cc1ccc(O)cc1)NC(=O)[C@H](C)NC(=O)[C@H](C)NC(=O)[C@H](CCCCN)NC(=O)[C@H](CCCCN)NC(=O)[C@H](Cc1c[nH]c2ccccc12)NC(=O)[C@H](CCCCN)NC(=O)[C@H](CCSC)NC(=O)[C@H](CCCNC(=N)N)NC(=O)[C@H](CCCNC(=N)N)NC(=O)[C@H](CC(N)=O)NC(=O)[C@H](CCC(N)=O)NC(=O)[C@H](Cc1ccccc1)NC(=O)[C@H](Cc1c[nH]c2ccccc12)NC(=O)[C@@H](NC(=O)[C@H](CCCCN)NC(=O)[C@@H](NC(=O)[C@H](CCC(N)=O)NC(=O)[C@@H](N)CCCNC(=N)N)[C@@H](C)CC)[C@@H](C)CC)C(=O)NCC(=O)N[C@@H](CC(N)=O)C(=O)N[C@@H](CO)C(=O)N[C@@H](Cc1ccc(O)cc1)C(=O)N[C@@H](Cc1ccccc1)C(=O)N[C@@H](CCCCN)C(=O)O [Antp-K1A] (H-RQIKIWFQNRRMKWKKAAYARIGNSYFK-OH; N-terminus and C-terminus assumed)	20.29	13.04	93.55	8.41	24.84	effective but with a lower effect than the wild-type protein		
CC[C@H](C)[C@H](NC(=O)[C@H](CCCNC(=N)N)NC(=O)[C@H](C)NC(=O)[C@H](CC(C)C)NC(=O)[C@H](C)NC(=O)[C@H](CCCCN)NC(=O)[C@H](CCCCN)NC(=O)[C@H](CCCCN)NC(=O)[C@H](Cc1c[nH]c2ccccc12)NC(=O)[C@H](CCCCN)NC(=O)[C@H](CCSC)NC(=O)[C@H](CCCNC(=N)N)NC(=O)[C@H](CCCNC(=N)N)NC(=O)[C@H](CC(N)=O)NC(=O)[C@H](CCC(N)=O)NC(=O)[C@H](Cc1ccccc1)NC(=O)[C@H](Cc1c[nH]c2ccccc12)NC(=O)[C@@H](NC(=O)[C@H](CCCCN)NC(=O)[C@@H](NC(=O)[C@H](CCC(N)=O)NC(=O)[C@@H](N)CCCNC(=N)N)[C@@H](C)CC)[C@@H](C)CC)C(=O)NCC(=O)N[C@@H](CC(N)=O)C(=O)N[C@@H](CO)C(=O)N[C@@H](Cc1ccc(O)cc1)C(=O)N[C@@H](Cc1ccccc1)C(=O)N[C@@H](CCCCN)C(=O)O [Antp-Y3L] (H-RQIKIWFQNRRMKWKKKALARIGNSYFK-OH; N-terminus and C-terminus assumed)	52.87	20.23	60.94	50.89	38.14	effective but with a lower effect than the wild-type protein		
CC[C@H](C)[C@H](NC(=O)[C@H](CCCNC(=N)N)NC(=O)[C@H](C)NC(=O)[C@H](Cc1ccc(O)cc1)NC(=O)[C@H](C)NC(=O)[C@H](CCCCN)NC(=O)[C@H](CCCCN)NC(=O)[C@H](CCCCN)NC(=O)[C@H](Cc1c[nH]c2ccccc12)NC(=O)[C@H](CCCCN)NC(=O)[C@H](CCSC)NC(=O)[C@H](CCCNC(=N)N)NC(=O)[C@H](CCCNC(=N)N)NC(=O)[C@H](CC(N)=O)NC(=O)[C@H](CCC(N)=O)NC(=O)[C@H](Cc1ccccc1)NC(=O)[C@H](Cc1c[nH]c2ccccc12)NC(=O)[C@@H](NC(=O)[C@H](CCCCN)NC(=O)[C@@H](NC(=O)[C@H](CCC(N)=O)NC(=O)[C@@H](N)CCCNC(=N)N)[C@@H](C)CC)[C@@H](C)CC)C(=O)NCC(=O)N[C@@H](CC(N)=O)C(=O)N[C@@H](CO)C(=O)N[C@@H](Cc1ccc(O)cc1)C(=O)N[C@@H](Cc1ccc(O)cc1)C(=O)N[C@@H](CCCCN)C(=O)O [Antp-F11Y] (H-RQIKIWFQNRRMKWKKKAYARIGNSYYK-OH; N-terminus and C-terminus assumed)	110.50	820.08	1.10	128.84	2116.95	effect higher than the wild-type protein	stronger than that of the wild-type peptide	increase in effect
CC[C@H](C)[C@H](NC(=O)[C@H](CCCCN)NC(=O)[C@@H](NC(=O)[C@H](CCC(N)=O)NC(=O)[C@@H](N)CCCNC(=N)N)[C@@H](C)CC)C(=O)N[C@@H](Cc1c[nH]c2ccccc12)C(=O)N[C@@H](Cc1ccccc1)C(=O)N[C@@H](CCC(N)=O)C(=O)N[C@@H](CC(N)=O)C(=O)N[C@@H](CCCNC(=N)N)C(=O)N[C@@H](CCCNC(=N)N)C(=O)N[C@@H](CCSC)C(=O)N[C@@H](CCCCN)C(=O)N[C@@H](Cc1c[nH]c2ccccc12)C(=O)N[C@@H](CCCCN)C(=O)N[C@@H](CCCCN)C(=O)N[C@@H](CCCCN)C(=O)N[C@@H](C)C(=O)N[C@@H](Cc1ccc(O)cc1)C(=O)N[C@@H](C)C(=O)N[C@@H](CCCNC(=N)N)C(=O)N[C@@H](CCCNC(=N)N)C(=O)NCC(=O)N[C@@H](CC(N)=O)C(=O)N[C@@H](CO)C(=O)N[C@@H](Cc1ccc(O)cc1)C(=O)N[C@@H](Cc1ccccc1)C(=O)N[C@@H](CCCCN)C(=O)O [Antp-I6R] (H-RQIKIWFQNRRMKWKKKAYARRGNSYFK-OH; N-terminus and C-terminus assumed)	1.95	10.87	91.60	10.92	25.36	effective but with a lower effect than the wild-type protein		
CC[C@H](C)[C@H](NC(=O)[C@H](CCCNC(=N)N)NC(=O)CNC(=O)[C@H](Cc1ccc(O)cc1)NC(=O)[C@H](C)NC(=O)[C@H](CCCCN)NC(=O)[C@H](CCCCN)NC(=O)[C@H](CCCCN)NC(=O)[C@H](Cc1c[nH]c2ccccc12)NC(=O)[C@H](CCCCN)NC(=O)[C@H](CCSC)NC(=O)[C@H](CCCNC(=N)N)NC(=O)[C@H](CCCNC(=N)N)NC(=O)[C@H](CC(N)=O)NC(=O)[C@H](CCC(N)=O)NC(=O)[C@H](Cc1ccccc1)NC(=O)[C@H](Cc1c[nH]c2ccccc12)NC(=O)[C@@H](NC(=O)[C@H](CCCCN)NC(=O)[C@@H](NC(=O)[C@H](CCC(N)=O)NC(=O)[C@@H](N)CCCNC(=N)N)[C@@H](C)CC)[C@@H](C)CC)C(=O)NCC(=O)N[C@@H](CC(N)=O)C(=O)N[C@@H](CO)C(=O)N[C@@H](Cc1ccc(O)cc1)C(=O)N[C@@H](Cc1ccccc1)C(=O)N[C@@H](CCCCN)C(=O)O [Antp-A4G] (H-RQIKIWFQNRRMKWKKKAYGRIGNSYFK-OH; N-terminus and C-terminus assumed)	108.40	333.52	11.42	115.40	203.46	effect higher than the wild-type protein	stronger than that of the wild-type peptide	
CC[C@H](C)[C@H](NC(=O)[C@H](CCCNC(=N)N)NC(=O)[C@H](C)NC(=O)[C@H](Cc1ccc(O)cc1)NC(=O)[C@H](C)NC(=O)[C@H](CCCCN)NC(=O)[C@H](CCCCN)NC(=O)[C@H](CCCCN)NC(=O)[C@H](Cc1c[nH]c2ccccc12)NC(=O)[C@H](CCCCN)NC(=O)[C@H](CCSC)NC(=O)[C@H](CCCNC(=N)N)NC(=O)[C@H](CCCNC(=N)N)NC(=O)[C@H](CC(N)=O)NC(=O)[C@H](CCC(N)=O)NC(=O)[C@H](Cc1ccccc1)NC(=O)[C@H](Cc1c[nH]c2ccccc12)NC(=O)[C@@H](NC(=O)[C@H](CCCCN)NC(=O)[C@@H](NC(=O)[C@H](CCC(N)=O)NC(=O)[C@@H](N)CCCNC(=N)N)[C@@H](C)CC)[C@@H](C)CC)C(=O)NCC(=O)N[C@@H](CC(N)=O)C(=O)N[C@@H](Cc1ccc(O)cc1)C(=O)N[C@@H](Cc1ccc(O)cc1)C(=O)N[C@@H](Cc1ccccc1)C(=O)N[C@@H](CCCCN)C(=O)O [Antp-S9Y] (H-RQIKIWFQNRRMKWKKKAYARIGNYYFK-OH; N-terminus and C-terminus assumed)	106.80	232.05	12.73	113.69	182.60	effect higher than the wild-type protein	stronger than that of the wild-type peptide	increase in effect
